Results as given in EP3771713A1 (priority 2019, dated 2021).
Entries after “also recorded” stand apart in the source; their conditions may differ. Like-named read-outs stand apart in the source and are kept apart here.

Key:
[1] = molecular target: hAChE-induced Aβ40 aggregation (Homo sapiens, UniProt P22303); experiment: biochemical; format: biochemical; settings: for inhibition at 100 µM: [I] = 100 µM, Aβ40/hAChE ratio 100/1, mean ± SEM, read-out: % inhibition Aβ aggregation AChE-induced
hBChE = hBChE (Homo sapiens, UniProt P06276); experiment: biochemical; format: biochemical
hAChE = hAChE (Homo sapiens, UniProt P22303); experiment: biochemical; format: biochemical
hCB2R [2] = molecular target: T1, hCB2R (Homo sapiens, UniProt P34972); experiment: biochemical; format: binding
T1 construct: expressed in transfected cells; host or cells: HEK cells stably expressing hCB2R

hCB1R = molecular target: T2, hCB1R (Homo sapiens, UniProt P21554); format: binding
T2 construct: expressed in transfected cells; host or cells: CHO cells stably expressing hCB1R

eeAChE = eeAChE (Electrophorus electricus, UniProt O42275); experiment: biochemical
Aβ42 = Aβ42 (Homo sapiens, UniProt P05067); experiment: Aβ42 self-aggregation, thioflavin-T fluorescence assay; format: biochemical; settings: for inhibition at 50 µM: read-out: % inhibition Aβ aggregation self-induced; for inhibition of Aβ42 self-aggregation (in words): 1/1 ratio with Aβ42
[3] = system: Aβ25-35-induced learning impairments in mice; settings: mouse, ip; for dose that significantly prevented Aβ25-35-induced learning impairments / most effective dose (completely prevented Aβ25-35 impairments in both tests): in vivo
[4] = system: murine microglial cell line N9; experiment: Microglia activation: LPS-activated N9 cells, M1/M2 markers (Griess reaction, western blot); format: cell-based; settings: N9 cells, 100 ng/mL LPS, 1-5 µM compound, 24 h
HT-22 cells = format: cell-based, murine
hCB2R [5] = molecular target: T1, hCB2R; format: cell-based
[6] = eeAChE from electric eel, read-out: IC50 AChE (eeAChE)
[7] = 50 µM inhibitor and 50 µM Aβ42, mean ± SEM
[8] = hBChE from human serum, means of at least three determinations, read-out: IC50 hBChE
[9] = hAChE recombinant expressed, read-out: IC50 AChE (hAChE)

Chain of hAChE-induced Aβ40 aggregation (P22303 32-614): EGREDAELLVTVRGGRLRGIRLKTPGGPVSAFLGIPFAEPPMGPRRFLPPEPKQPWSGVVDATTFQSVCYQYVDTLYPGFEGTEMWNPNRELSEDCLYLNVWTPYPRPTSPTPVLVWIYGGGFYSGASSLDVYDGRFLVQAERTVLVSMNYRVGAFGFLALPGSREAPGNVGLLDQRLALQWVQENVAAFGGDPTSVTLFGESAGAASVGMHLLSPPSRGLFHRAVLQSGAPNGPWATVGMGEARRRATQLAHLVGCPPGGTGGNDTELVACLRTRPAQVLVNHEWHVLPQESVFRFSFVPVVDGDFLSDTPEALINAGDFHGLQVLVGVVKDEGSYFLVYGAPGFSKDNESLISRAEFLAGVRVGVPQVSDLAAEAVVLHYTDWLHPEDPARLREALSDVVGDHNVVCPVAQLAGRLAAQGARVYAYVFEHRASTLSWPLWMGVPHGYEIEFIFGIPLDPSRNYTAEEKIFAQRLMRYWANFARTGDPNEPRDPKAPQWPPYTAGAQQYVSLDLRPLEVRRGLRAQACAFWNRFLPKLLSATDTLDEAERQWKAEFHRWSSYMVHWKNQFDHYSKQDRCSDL
Chain of hAChE (P22303 32-614): as above
T2 sequence (P21554 whole entry): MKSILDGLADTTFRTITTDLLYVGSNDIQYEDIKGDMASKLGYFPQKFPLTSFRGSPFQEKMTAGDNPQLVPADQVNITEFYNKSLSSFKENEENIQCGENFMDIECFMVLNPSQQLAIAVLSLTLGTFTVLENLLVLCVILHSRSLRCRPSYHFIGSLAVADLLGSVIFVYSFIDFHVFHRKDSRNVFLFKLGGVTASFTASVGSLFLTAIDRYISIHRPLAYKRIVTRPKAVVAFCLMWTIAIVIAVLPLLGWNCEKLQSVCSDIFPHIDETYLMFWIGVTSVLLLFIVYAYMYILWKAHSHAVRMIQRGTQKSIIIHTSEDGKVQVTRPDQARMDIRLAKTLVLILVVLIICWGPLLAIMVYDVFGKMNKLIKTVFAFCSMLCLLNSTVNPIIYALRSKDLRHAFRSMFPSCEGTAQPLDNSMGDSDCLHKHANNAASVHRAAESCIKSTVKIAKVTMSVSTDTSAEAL
Chain of Aβ42 (P05067 672-713): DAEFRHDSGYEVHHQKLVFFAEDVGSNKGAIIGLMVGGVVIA
T1 sequence (P34972 whole entry): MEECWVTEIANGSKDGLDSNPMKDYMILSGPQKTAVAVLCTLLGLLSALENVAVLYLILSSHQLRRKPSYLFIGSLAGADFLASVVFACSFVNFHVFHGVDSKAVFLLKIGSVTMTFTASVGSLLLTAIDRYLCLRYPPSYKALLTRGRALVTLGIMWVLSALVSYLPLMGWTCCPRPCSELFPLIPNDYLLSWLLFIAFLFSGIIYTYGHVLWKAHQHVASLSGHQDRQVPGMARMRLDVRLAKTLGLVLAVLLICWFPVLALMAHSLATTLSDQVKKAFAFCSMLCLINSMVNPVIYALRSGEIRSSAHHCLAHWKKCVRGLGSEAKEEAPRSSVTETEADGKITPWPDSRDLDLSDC
Chain of hBChE (P06276 29-602): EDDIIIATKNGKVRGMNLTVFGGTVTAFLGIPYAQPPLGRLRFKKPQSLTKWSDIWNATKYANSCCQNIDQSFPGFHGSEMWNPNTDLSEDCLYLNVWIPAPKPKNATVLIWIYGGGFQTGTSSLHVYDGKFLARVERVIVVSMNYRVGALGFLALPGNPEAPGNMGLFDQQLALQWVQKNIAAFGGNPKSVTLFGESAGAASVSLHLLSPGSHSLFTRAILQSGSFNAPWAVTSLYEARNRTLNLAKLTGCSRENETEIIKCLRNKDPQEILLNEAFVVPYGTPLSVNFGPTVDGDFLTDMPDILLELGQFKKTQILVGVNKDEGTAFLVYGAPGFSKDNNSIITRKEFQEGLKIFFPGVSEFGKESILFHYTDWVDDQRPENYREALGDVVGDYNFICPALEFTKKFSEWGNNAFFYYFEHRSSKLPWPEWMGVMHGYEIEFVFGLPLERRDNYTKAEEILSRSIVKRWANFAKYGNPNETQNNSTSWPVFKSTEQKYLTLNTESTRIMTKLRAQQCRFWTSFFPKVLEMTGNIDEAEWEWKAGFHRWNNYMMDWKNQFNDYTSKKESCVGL
Chain of eeAChE (O42275 24-633): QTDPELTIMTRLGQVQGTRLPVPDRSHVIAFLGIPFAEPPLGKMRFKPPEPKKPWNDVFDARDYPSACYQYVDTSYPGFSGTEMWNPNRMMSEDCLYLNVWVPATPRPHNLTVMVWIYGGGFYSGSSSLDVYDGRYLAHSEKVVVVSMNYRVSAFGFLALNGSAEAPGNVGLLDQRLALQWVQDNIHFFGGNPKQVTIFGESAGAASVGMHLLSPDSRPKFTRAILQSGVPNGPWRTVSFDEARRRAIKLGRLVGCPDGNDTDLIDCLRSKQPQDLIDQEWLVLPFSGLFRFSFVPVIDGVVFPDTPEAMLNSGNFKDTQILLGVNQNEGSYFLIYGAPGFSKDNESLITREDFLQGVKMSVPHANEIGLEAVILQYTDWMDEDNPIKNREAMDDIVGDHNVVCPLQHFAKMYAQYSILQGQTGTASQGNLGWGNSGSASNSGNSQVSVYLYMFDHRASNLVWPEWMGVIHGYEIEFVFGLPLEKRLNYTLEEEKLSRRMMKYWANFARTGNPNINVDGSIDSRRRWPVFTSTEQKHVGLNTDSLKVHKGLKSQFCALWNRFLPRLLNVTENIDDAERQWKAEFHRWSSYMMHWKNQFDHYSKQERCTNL

In the case of `CCOc1ccc(Cc2nc3cc(C(=O)NCCCNc4c5c(nc6ccccc46)CCCC5)ccc3n2CCC(C)C)cc1` [4b, 2-(4-Ethoxybenzyl)-1-isopentyl-N-(3-((1,2,3,4-tetrahydroacridin-9-yl)amino)propyl)-1H-benzo[d]imidazole-5-carboxamide], the “inhibition of AChE-induced Aβ40 aggregation (in words)” value [1] is reported as “significantly reduce”, the inhibition at 100 µM [1] is reported as 47.8 ± 9.6% and the “inhibitory potency towards hBChE compared to tacrine” value (hBChE) is reported as “increased inhibitory potency”. For the same compound, the “inhibitory activity towards hAChE compared to tacrine” value (hAChE; compared to tacrine) was “higher inhibitory activity”, the “pIC50 ± SD hCB2R (in brackets after Ki)” value (hCB2R [2]) was 5.0 µM (5.3 ± 0.1) and the Ki (hCB2R [2]; read-out: Ki hCB2R) was 5000 nM. For the same compound, the “[^3H]CP 55,940 displ. @10 µM hCB1R” value (hCB1R) was 20%, the IC50 (eeAChE; [6]) was 3.2 nM and the inhibition at 50 µM (Aβ42; [7]) was 16.4 ± 4.2%. The “inhibition of Aβ42 self-aggregation (in words)” value (Aβ42) was “quite weak”.

With `CCOc1ccc(Cc2nc3cc(C(=O)NCCNc4c5c(nc6ccccc46)CCCC5)ccc3n2CCC(C)C)cc1` [4a, 2-(4-Ethoxybenzyl)-1-isopentyl-N-(2-((1,2,3,4-tetrahydroacridin-9-yl)amino)ethyl)-1H-benzo[d]imidazole-5-carboxamide] the “pIC50 ± SD hCB2R (in brackets after Ki)” value (hCB2R [2]) was 2.5 µM (5.6 ± 0.2), the Ki (hCB2R [2]; read-out: Ki hCB2R) was 2500 nM and the “dose that significantly prevented Aβ25-35-induced learning impairments” value [3] was 0.3 mg/kg. For the same compound, the “most effective dose (completely prevented Aβ25-35 impairments in both tests)” value [3] was 1 mg/kg, the IC50 (eeAChE; [6]) was 2.1 nM and the “NO release / nitrite accumulation” value [4] was “reduced”. The IL1β release ([4]; M1 marker) was “significantly decrease”, the iNOS expression ([4]; M1 marker) was “significantly decrease” and the TGFβ2 expression ([4]; M2 marker) was “not reduced”. For the same compound, the TREM2 expression ([4]; M2 marker) was “not reduced”.

`CCOc1ccc(Cc2nc3cc(C(=O)N(CC)CCCCNc4c5c(nc6ccccc46)CCCC5)ccc3n2CCC(C)C)cc1` [compound 5, 2-(4-ethoxybenzyl)-N-ethyl-1-isopentyl-N-(4-((1,2,3,4-tetrahydroacridin-9-yl)amino)butyl)-1H-benzo[d]imidazole-5-carboxamide] was tested, and the SI (hBChE) was 6.2, the “pIC50 ± SD hBChE” value (hBChE; hBChE from human serum) was 7.2 ± 0.1 and the IC50 (hBChE; [8]) was 60 nM. For the same compound, the “pIC50 ± SD AChE (hAChE)” value (hAChE; hAChE recombinant expressed) was 6.6 ± 0.1, the IC50 (hAChE; [9]) was 259 nM and the Ki (hCB2R [2]) was 3160 nM. The “affinity towards hCB2R (in words)” value (hCB2R [2]) was “same affinity”, the “selectivity hCB2R over hCB1R (in words)” value (hCB2R [2]) was “low selectivity” and the Ki (hCB2R [2]; read-out: Ki hCB2R) was 3000 nM. For the same compound, the “[^3H]CP 55,940 displ. @10 µM hCB1R” value (hCB1R) was 36%, the “affinity towards hCB1R (in words)” value (hCB1R) was “higher affinity” and the IC50 (eeAChE; [6]) was 370 nM.

For `CCOc1ccc(Cc2nc3cc(C(=O)NCCCCCCNc4c5c(nc6ccccc46)CCCC5)ccc3n2CCC(C)C)cc1` [4e, 2-(4-Ethoxybenzyl)-1-isopentyl-N-(6-((1,2,3,4-tetrahydroacridin-9-yl)amino)hexyl)-1H-benzo[d]imidazole-5-carboxamide], the Ki (hCB2R [2]) was 10000 nM, the Ki (hCB2R [2]; read-out: Ki hCB2R) was 9600 nM and the “[^3H]CP 55,940 displ. @10 µM hCB1R” value (hCB1R) was 54%. For the same compound, the IC50 (eeAChE; [6]) was 8.5 nM.

For `CCOc1ccc(Cc2nc3cc(C(=O)NCCSSCCNc4c5c(nc6ccccc46)CCCC5)ccc3n2CCC(C)C)cc1` [compound 8, 2-(4-Ethoxybenzyl)-1-isopentyl-N-(2-((2-((1,2,3,4-tetrahydroacridin-9-yl)amino)ethyl)disulfaneyl)ethyl)-1H-benzo[d]imidazole-5-carboxamide], the “inhibition of AChE-induced Aβ40 aggregation (in words)” value [1] was “not able to significantly inhibit”, the inhibition at 100 µM [1] was 5 ± 2.6% and the “pIC50 ± SD hBChE” value (hBChE; hBChE from human serum) was 7.1 ± 0.1. The IC50 (hBChE; [8]) was 77 nM, the “pIC50 ± SD AChE (hAChE)” value (hAChE; hAChE recombinant expressed) was 7.9 ± 0.1 and the IC50 (hAChE; [9]) was 13.4 nM. For the same compound, the Ki (hCB2R [2]) was 6310 nM, the “affinity towards hCB2R (in words)” value (hCB2R [2]) was “no significant effect on affinity” and the Ki (hCB2R [2]; read-out: Ki hCB2R) was 6800 nM. For the same compound, the “dose that significantly prevented Aβ25-35-induced learning impairments” value [3] was 0.3 mg/kg, the “most effective dose (completely prevented Aβ25-35 impairments in both tests)” value [3] was 0.3 mg/kg and the “dose given for the high in vivo efficacy (conclusion)” value [3] was 0.1 mg/kg. The “neuroprotective behavior (in words)” value (HT-22 cells) was “neuroprotection comparable to the positive control quercetin; also recorded: showed neuroprotection”, the “[^3H]CP 55,940 displ. @10 µM hCB1R” value (hCB1R) was 45% and the IC50 (eeAChE; [6]) was 44 nM. The inhibition at 50 µM (Aβ42; [7]) was 83.4 ± 6.4% and the “inhibition of Aβ42 self-aggregation (in words)” value (Aβ42) was “strongly inhibited”.

With `CCOc1ccc(Cc2nc3cc(C(=O)NCCCCNc4c5c(nc6ccccc46)CCCC5)ccc3n2CCC(C)C)cc1` [4c, 2-(4-Ethoxybenzyl)-1-isopentyl-N-(4-((1,2,3,4-tetrahydroacridin-9-yl)amino)butyl)-1H-benzo[d]imidazole-5-carboxamide] the Ki (hCB2R [2]) was 2510 nM, the Ki (hCB2R [2]; read-out: Ki hCB2R) was 2400 nM and the MIF gene expression (hCB2R [5]) was “reduced”. For the same compound, the STAT-3 gene expression (hCB2R [5]) was “reduced”, the “behavior at the hCB2R” value (hCB2R [5]) was “maintained their agonist behavior” and the “[^3H]CP 55,940 displ. @10 µM hCB1R” value (hCB1R) was 9%. For the same compound, the IC50 (eeAChE; [6]) was 12.8 nM.

`Cc1c(C(=O)NN2CCCCC2)nn(-c2ccc(Cl)cc2Cl)c1-c1ccc(Cl)cc1` [Rimonabant, reference compound] was tested, and the “[^3H]CP 55,940 displ. @10 µM hCB2R” value (hCB2R [2]) was 4%.

With `CCOc1ccc(Cc2nc3cc(C(=O)NCCCCCNc4c5c(nc6ccccc46)CCCC5)ccc3n2CCC(C)C)cc1` [4d, 2-(4-Ethoxybenzyl)-1-isopentyl-N-(5-((1,2,3,4-tetrahydroacridin-9-yl)amino)pentyl)-1H-benzo[d]imidazole-5-carboxamide] the “pIC50 ± SD hCB2R (in brackets after Ki)” value (hCB2R [2]) was 4.0 µM (5.4 ± 0.1), the Ki (hCB2R [2]; read-out: Ki hCB2R) was 4000 nM and the “[^3H]CP 55,940 displ. @10 µM hCB1R” value (hCB1R) was 15%. The IC50 (eeAChE; [6]) was 52.7 nM.

For `CCOc1ccc(Cc2nc3cc(C(=O)N(CC)CC)ccc3n2CCCNc2c3c(nc4ccccc24)CCCC3)cc1` [3b, 2-(4-Ethoxybenzyl)-N,N-diethyl-1-(3-((1,2,3,4-tetrahydroacridin-9-yl)amino)propyl)-1H-benzo[d]imidazole-5-carboxamide], the “inhibitory potency towards hBChE compared to tacrine” value (hBChE) was “increased inhibitory potency”, the “[^3H]CP 55,940 displ. @10 µM hCB1R” value (hCB1R) was 15% and the IC50 (eeAChE; [6]) was 130 nM.

`CCOc1ccc(Cc2nc3cc(C(=O)N(CC)CC)ccc3n2CCCCNc2c3c(nc4ccccc24)CCCC3)cc1` [3c, 2-(4-ethoxybenzyl)-N,N-diethyl-1-(4-((1,2,3,4-tetrahydroacridin-9-yl)amino)butyl)-1H-benzo[d]imidazole-5-carboxamide] was tested, and the Ki (hCB2R [2]) was 25100 nM, the Ki (hCB2R [2]; read-out: Ki hCB2R) was 26900 nM and the “[^3H]CP 55,940 displ. @10 µM hCB1R” value (hCB1R) was 32%. For the same compound, the IC50 (eeAChE; [6]) was 157 nM.

`Nc1c2c(nc3ccccc13)CCCC2` [Tacrine 1, tacrine, reference compound] was tested, and the “inhibition of Aβ42 self-aggregation (in words)” value (Aβ42) was “no effect” and the inhibition at 50 µM (Aβ42) was less than 5%.

In the case of `CCOc1ccc(Cc2nc3cc(C(=O)N(CC)CC)ccc3n2CCCCCNc2c3c(nc4ccccc24)CCCC3)cc1` [3d, 2-(4-Ethoxybenzyl)-N,N-diethyl-1-(5-((1,2,3,4-tetrahydroacridin-9-yl)amino)pentyl)-1H-benzo[d]imidazole-5-carboxamide], the “pIC50 ± SD AChE (hAChE)” value (hAChE) is reported as 199 nM^b 641 nM^c (6.2 ± 0.1), the IC50 (hAChE; IC50 AChE (hAChE)) is reported as 641 nM and the Ki (hCB2R [2]) is reported as 7940 nM. For the same compound, the Ki (hCB2R [2]; read-out: Ki hCB2R) was 7300 nM, the “dose that significantly prevented Aβ25-35-induced learning impairments” value [3] was 0.3 mg/kg and the “neuroprotective behavior (in words)” value (HT-22 cells) was “none”. For the same compound, the “[^3H]CP 55,940 displ. @10 µM hCB1R” value (hCB1R) was 21% and the IC50 (eeAChE) was 199 nM.

`CCOc1ccc(Cc2nc3cc(C(=O)NCCOCCOCCNc4c5c(nc6ccccc46)CCCC5)ccc3n2CCC(C)C)cc1` [compound 7, 2-(4-Ethoxybenzyl)-1-isopentyl-N-(2-(2-(2-((1,2,3,4-tetrahydroacridin-9-yl)amino)ethoxy)ethoxy)ethyl)-1H-benzo[d]imidazole-5-carboxamide] was tested, and the IC50 (hAChE; IC50 AChE (hAChE)) was 1360 nM, the IC50 (hAChE; pIC50 ± SD AChE (hAChE)) was 1400 nM and the Ki (hCB2R [2]) was 15800 nM. The “affinity towards hCB2R (in words)” value (hCB2R [2]) was “weaker affinity”, the Ki (hCB2R [2]; read-out: Ki hCB2R) was 17400 nM and the “[^3H]CP 55,940 displ. @10 µM hCB1R” value (hCB1R) was 32%. The IC50 (eeAChE) was 1030 nM.

For `CCOc1ccc(Cc2nc3cc(C(=O)N(CC)CC)ccc3n2CCOCCOCCNc2c3c(nc4ccccc24)CCCC3)cc1` [compound 6, 2-(4-Ethoxybenzyl)-N,N-diethyl-1-(2-(2-(2-((1,2,3,4-tetrahydroacridin-9-yl)amino)ethoxy)ethoxy)ethyl)-1H-benzo[d]imidazole-5-carboxamide], the IC50 (hBChE) was 90 nM, the “pIC50 ± SD hBChE” value (hBChE) was 90 nM (7.0 ± 0.1) and the Ki (hCB2R [2]) was 31600 nM. For the same compound, the “affinity towards hCB2R (in words)” value (hCB2R [2]) was “weaker affinity”, the Ki (hCB2R [2]; read-out: Ki hCB2R) was 28700 nM and the “[^3H]CP 55,940 displ. @10 µM hCB1R” value (hCB1R) was 11%. It also gave an IC50 (eeAChE) of 150 nM.
